The test system of the data set is mouse plasma stability, percent remaining. The data set can be described thus: qHTS Assay for Inhibitors of Bacillus subtilis Sfp phosphopantetheinyl transferase (PPTase): Mouse Plasma Stability. The conditions noted are these: stronger effect = higher value. An excerpt: The covalent attachment of a phosphopantetheinyl (4'-PP) arm to a variety of synthases and other proteins is a key posttranslational protein modification. The 4'-PP is installed on the proteins post-translationally from coenzyme A (CoA) on a conserved serine residue by action of phosphopantetheinyl transferase (PPTase) enzymes. Phosphopantetheinylation is essential for synthase activity, and removal of the PPTase gene precludes natural product synthesis in microorganisms, or in the case of fatty acid biosynthesis, renders the organism unviable. PPTase enzymes belong to a distinct structural superfamily. Within bacteria, these enzymes are grouped into two classes based upon primary structure, the AcpS-Type and Sfp-Type PPTases.
Sfp-type PPTases, corresponding to an activator of surfactin production in Bacillus subtilis, are responsible for modifying type I polyketide and nonribosomal peptide synthases of prokaryotes. Sfp-type PPTases are responsible for the activation of a variety of pathogen-associated virulence factors. […]
5 uM of compound is incubated with mouse liver microsome; the reference compounds are verapamil and warfarin. Compounds are incubated and samples are analyzed with LC-MS/MS.
Background: Quantitative high-throughput screening tests each substance at several concentrations.

Structures are written as SMILES.

`COc1ccnc(NC(=S)N2CCN(c3ncc(C(F)(F)F)cc3Cl)CC2)c1`: the percent remaining was 100%.

The record behind these values is PubChem BioAssay AID624113 (National Center for Advancing Translational Sciences (NCATS), 2012).
